Patent US20230149507A1, “TREATMENT OF ALT CANCERS” (INSTITUTO DE MEDICINA MOLECULAR JOÃO LOBO ANTUNES, priority 2019, published 2023)

Assays:
Type in all cases: cell-based, human
[1] = test system: HeLa cells; assay: FACS cell cycle analysis of FANCM-depleted HeLa cells with added agents; conditions: FANCM-depleted HeLa cells; hydroxyurea followed by block release
Method: When indicated, cells were incubated with 1 μM camptothecin (Sigma-Aldrich) for 3 hours, 0.2 mM hydroxyurea (Sigma-Aldrich) for 16 h, 20 μM BIBR 1532 (Merck Millipore) for 7 days, and 10 μM RO-3306 (Selleckchem) for 18 h. […] For fluorescence-activated cell sorting, cells were trypsinized and pelleted by centrifugation at 500 g at 4° C. for 5 min. Cell pellets were either left untreated for viability assays or fixed in 70% ethanol at −20° C. for 30 min and treated with 25 μg/ml RNaseA (Sigma-Aldrich) in 1×PBS at 37° C. for 20 min. Cells were then washed in 1×PBS and stained with 20 μg/ml propidium iodide (Sigma-Aldrich) in 1×PBS at 4° C. for 10 min. Flow cytometry was performed on a BD FACSCalibur or a BD Accuri C6 (BD Biosciences). Data were analyzed using FlowJo software.

[2] = test system: HeLa cells; assay: Western blot of pS33 (RPA32 phosphorylated at serine 33); conditions: FANCM-depleted HeLa cells
Method: HeLa cervical cancer, HT1080 fibrosarcoma, and HEK293 embryonic kidney cells were purchased from ATCC. […] HeLa, HT1080, HEK293, U2OS, and WI-38 VA13 cells were cultured in high glucose DMEM, GlutaMAX (Thermo Fisher Scientific) supplemented with 10% tetracycline-free fetal bovine serum (Pan BioTech) and 100 U/ml penicillin-streptomycin (Thermo Fisher Scientific). HuO9, Saos2, HOS and SKNAS cells were cultured in high glucose DMEM/F12, GlutaMAX (Thermo Fisher Scientific), supplemented with 10% tetracycline-free fetal bovine serum (Pan BioTech), 100 U/ml penicillin-streptomycin (Thermo Fisher Scientific) and non-essential amino acids (Thermo Fisher Scientific). Mycoplasma contaminations were tested using the VenorGeM Mycoplasma PCR Detection Kit (Minerva Biolabs) according to the manufacturer's instructions. When indicated, cells were incubated with 1 μM camptothecin (Sigma-Aldrich) for 3 hours, 0.2 mM hydroxyurea (Sigma-Aldrich) for 16 h, 20 μM BIBR 1532 (Merck Millipore) for 7 days, and 10 μM RO-3306 (Selleckchem) for 18 h. Cells were trypsinized and pelleted by centrifugation at 500 g at 4° C. for 5 min. […] Supernatant were recovered and protein concentrations were determined by Lowry assay using bovine serum albumin (BSA; Sigma-Aldrich) as standard. […]

[3] = test system: U-2 OS, GM847 and Saos-2 ALT cell lines; assay: C-circle assay of cells treated with PIP-199; conditions: 0.5 μM PIP-199 for 72 h vs DMSO
Excerpt: (a) Schematic of MM2-tamoxifen (40HT)-inducible ER fusion protein-mediated inhibition of the FANCM-BTR complex interaction. […] (c) Tukey boxplots of TIFs in U-2 OS cells expressing MM2-ER or FF>AA-ER fusion proteins in the presence or absence of 40HT. Out of 3 experiments, n=150 cells scored per treatment, **p<0.005, Mann-Whitney test. (d) Representative dot blots and quantitation of C-circle assays in U-2 OS cells expressing MM2-ER or FF>AA-ER fusion proteins in the presence or absence of 40HT. C-circles were normalized to non-induced control. Error bars represent mean±SEM from n 3 experiments, *p<0.05, one-sample t-test. (e) Representative colony formation assay of GM847 and HCT116 cells expressing the MM2-ER fusion protein in the presence or absence of 40HT (top panel). Quantitation of the surviving fraction of colonies for ALT (U-2 OS, GM847 and Saos-2) and telomerase-positive (HeLa and HCT116) cell lines expressing MM2-ER or FF>AA-ER fusion proteins (bottom panel). Colony counts were normalized to non-induced controls. […] (f) Representative dot blots and quantitation of C-circle assays from U-2 OS, GM847, Saos-2, HeLa and HCT116 cells treated with 0.5 μM PIP-199 or vehicle control (DMSO) for 72 h. […] (g) Quantitation of the surviving fraction of colonies from U-2 OS, GM847, Saos-2, HeLa and HCT116 cells treated with PIP-199. […]

[4] = test system: U-2 OS, GM847, Saos-2 (ALT), HeLa and HCT116 (telomerase-positive) cells; assay: Clonogenic assay of cells treated with PIP-199
Method: (a) Quantitation of the surviving fraction of colonies from U-2 OS, GM847, Saos-2 (ALT), HeLa and HCT116 (telomerase-positive) cells treated with PIP-199 after 11 days. Colony counts were normalized to DMSO controls. Error bars represent mean±SEM from n=3 experiments, *p<0.05, n.s.=non-significant, Student's t-test.
Clonogenic assays were performed as described in Franken et al., 2006, with cells plated at 1,000 cells/10 cm dish with or without 200 nM 4-hydroxytamoxifen (Sigma Aldrich), which was replenished on days 4 and 7. For cells treated with PIP-199 (Aobious #AOB33732, CAS No: 622795-76-0), cells were plated at 300 cells/well in 6-well plates, and treated with 0-10 μM of drug in dimethyl sulfoxide (DMSO). Cells were left to grow for 11 days. Plates were washed with 1×PBS, then fixed and stained with 0.5% (w/v) crystal violet in 1 part acetic acid, 7 parts methanol for 2 h at room temperature. Plates were then washed with tap water and left to air dry. Colonies on each plate were counted and the plating efficiency and surviving fraction calculated.

[5] = test system: U-2 OS cells; assay: Terminal restriction fragment (TRF) analysis after FANCM siRNA; conditions: FANCM depletion, siRNA 30 nM
Excerpt: (§1) (a) Representative images of telomere (green) and γ-H2AX (red) colocalizations on metaphase spreads (meta-TIFs) in U-2 OS cells with or without FANCM depletion (left panel). Meta-TIFs are indicated by white arrows. Scale bars are 5 μm. Quantitation of TIFs (right panel). Scatterplot bars represent the mean±SEM. Out of 3 experiments, n≥81 metaphases scored per treatment, **p<0.005, Mann-Whitney test. (b) Native and denatured TRF analysis of U-2 OS cells with or without FANCM depletion. Colored arrows correspond to telomeric DNA species depicted in panel c. (c) Schematic of migration patterns for indicated telomeric species separated by two-dimensional gel electrophoresis (top panel). Two-dimensional TRF analysis of U-2 OS cells with or without FANCM depletion, hybridized under native and denatured conditions to detect the telomeric C-strand and G-strand (left and right panels). Colored arrows correspond to telomeric DNA species depicted in schematic. (d) Representative dot blot and quantitation of C-circle assays of U-2 OS cells with or without FANCM depletion. C-circle levels were normalized to the mean of scrambled control. Error bars represent the mean±SEM from n=3 experiments, *p<0.05, **p<0.005, Student's t-test. […] Out of 3 experiments, n≥150 cells scored per treatment, *p<0.05, **p<0.005, Mann-Whitney test. […]

[6] = test system: U-2 OS ALT cells; assay: Metaphase-TIFs after FANCM knockdown with siRNA; conditions: compared to the scrambled control; siRNA 30 nM, 72 h
Excerpt: as §1

For `NC(=O)NO` [HU, hydroxyurea], the cell cycle distribution [1] was “did not show an altered cell cycle distribution” and the pS33 accumulation [2] was “did not promote pS33 accumulation”.
For `CCOC(=O)N1CCN(C(c2ccccn2)c2c(-c3ccccc3)n(O)c3ccccc23)CC1` (stereo not shown) [PIP-199, 4-[(1-Hydroxy-2-phenyl-1H-indol-3-yl)-pyridin-2-yl-methyl]-piperazine-1-carboxylic acid ethyl ester], the C-circles [3] was “increase in C-circles”, the “sensitivity in clonogenic assay (surviving fraction of colonies)” value ([4]; 0-10 μM PIP-199, 11 days, ALT vs telomerase-positive cells) was “hypersensitivity of ALT cells” and the “surviving fraction of colonies” value ([4]; normalized to DMSO controls, datapoint exceeding the visible axis of FIG. 11g, cell line not stated) was 1.42.
In the case of “siFANCM2: Silencer Select siRNA FANCM2 (s33621) (SEQ ID NO: 13) (GAACAUACAUCAGAUAGCA; listed as RNA, chemistry not given here)”, the “G-rich overhang and low molecular weight ss C-rich telomeric DNA (native TRF)” value [5] is reported as “most marked effects” and the “metaphase-TIFs (meta-TIFs)” value [6] is reported as “significant increase in metaphase-TIFs”.
